Test results taken from paper PMC7305224, “Mutually stabilizing interactions between proto-peptides and RNA” (Nature Communications, 2020).
Non-standard residues stand in square brackets, D forms with d. Residues, ends and D or L forms follow the SMILES beside them. *: point of attachment. 5FAM = O=C1OC2(c3ccc(O)cc3Oc3cc(O)ccc32)c2ccc(C(=O)*)cc21; Dab = NCC[C@H](N)C(=O)O; Lac = C[C@H](O)C(=O)O

Key:
5′-Cy5-U20 RNA = test: Gel mobility (band) shift assay; type: binding; conditions: 66.6–530 µM FAM-labeled sequence, 5′-Cy5-U20 RNA 26.6 µM, MES-TEA buffer pH 6, 12% native polyacrylamide gel
Experimental: The gel was cropped at the edges for clarity. […] Spectra were recorded in 100 mM MES-TEA buffer (pH 6). d Plot of the change in CD signal at 266 nm as a function of increasing concentrations of depsipeptide 14. Red and blue colors of the filled circles correspond to curves of the same color in panel (c). […] […] An addition of 1.25 µL of glycerol brought the sample volume to a total of 3.75 µL. Samples were loaded onto a 12% native polyacrylamide gel, run at 100 V for 90 min, and imaged using Azure Biosystems c430.

[1] = tested on: RNA duplex 1 (5′-rCrGrCrUrArArArUrCrG-3′ & 5′-rCrGrArUrUrUrArGrCrG-3′); test: RNA thermal denaturation (Tm) by UV hyperchromicity at 260 nm with synthetic peptides/depsipeptides, RNA duplex 1; type: binding

SMILES: C[C@H](NC(=O)CNC(=O)c1ccc2c(c1)C(=O)OC21c2ccc(O)cc2Oc2cc(O)ccc21)C(=O)N[C@@H](CCN)C(=O)N[C@@H](CCCCN)C(=O)N[C@@H](C)C(=O)N[C@@H](CCN)C(=O)N[C@@H](CCCCN)C(=O)N[C@@H](C)C(=O)N[C@@H](CCN)C(=O)N[C@@H](CCCCN)C(=O)O[C@@H](C)C(=O)N[C@@H](CCN)C(=O)N[C@@H](CCCCN)C(=O)N[C@@H](C)C(=O)N[C@@H](CCN)C(=O)N[C@@H](CCCCN)C(N)=O [compound 13, 5-FAM-Gly-Ala-Dab-Lys-Ala-Dab-Lys-Ala-Dab-Lys-lac-Dab-Lys-Ala-Dab-Lys NH2] (5FAM-GA[Dab]KA[Dab]KA[Dab]K[Lac][Dab]KA[Dab]K-NH2)
- band shift of RNA in gel mobility shift assay (5′-Cy5-U20 RNA): concentration-dependent band shift
- RNA duplex 1 Tm ([1]; observed Tm, peptide/depsipeptide 80 mM (so in the source), pH 7.0, mean ± SD): 56.0 ± 0.8 °C
- RNA duplex 1 ΔTm ([1]; peptide/depsipeptide 80 μM, pH 7.0, 10 mM phosphate, 100 mM NaCl): 12.2 °C
